System: DMS-114 cells (TP53 R213X)
Experiment: G418-induced PTC readthrough (full-length p53, capillary electrophoresis Western) in DMS-114 cells
Type: cell-based, human
Conditions: for reduction of PTC readthrough compared with G418 alone: then 400 μg/ml G418 (Fig. 2A)
Source text: Variation in PTC readthrough response has been reported among individuals or cell lines with different nonsense mutations. Although this in part highlights the importance of the stop codon and its surrounding sequence as well as the physical location of the nonsense mutation in the mRNA sequence, understanding the contribution of other underlying genetic variations becomes more complicated. To rule out the effect of the sequence and position of nonsense mutations on response variation to potential PTC readthrough modulators, we studied two cancer cell lines, DMS-114 and TC-71, with identical homozygous nonsense mutation R213X in their TP53 gene. […] To find out whether the reduced response to G418 in TC-71 cells was associated with lower intracellular levels of G418, we measured concentrations of G418 in both cell lines at 0, 8 and 24 h post exposure to G418 (100 μg/ml).
Figure 1 Effect of TRPC inhibitors on G418 induced PTC readthrough. A, DMS-114 and TC-71 cell lines with homozygous TP53 nonsense mutation (R213X) were exposed to indicated concentrations of G418 for 24 h and p53 levels (full-length, FL-p53; truncated, TR-p53) were measured. B, 100 μg/ml G418 was added to DMS-114 and TC-71 cells and its total intracellular levels were measured at indicated time points (n = 5; data normalized to the highest response in each experiment; bars represent mean ± SD). C, DMS-114 cells were preincubated with indicated concentrations of TRPC inhibitors GFB-8438 (GFB), SAR7334 (SAR), SKF96365 (SKF), 2-APB, or AC1903 for 3 h followed by exposure to 400 μg/ml G418 for another 3 h. At 24 h cell lysates were prepared and p53 levels were measured. In panels A and C, protein levels were measured by automated capillary electrophoresis Western analysis (using vinculin and GAPDH as loading controls). Samples of cell lysates containing equal amounts of total protein were loaded in all capillaries and FL-p53 levels were expressed relative to the amount of FL-p53 in untreated cells. ∗ indicates statistically significant difference between samples according to two-way ANOVA (p < 0.05). PTC, premature termination codon; TRPC, transient receptor potential canonical.
To further investigate AC1903 as a suppressor of G418-induced PTC readthrough, we exposed DMS-114 and TC-71 cells to various concentrations of AC1903 for 3 h prior to exposure to 400 μg/ml G418 for another 3 h, followed by media replacement and incubation for another 18 h.
Figure 2 Effect of AC1903 on PTC readthrough and G418 trafficking.A and B, DMS-114 (A) or TC-71 (B) cells were pretreated with indicated concentrations of AC1903 for 3 h followed by exposure to 400 μg/ml G418. After 3 h medium was replenished and at 24 h cell lysates were prepared and p53 levels were measured. C and E, DMS-114 (C) or JEB01 (E) cells were either left untreated or pretreated with 150 μM AC1903 for 3 h followed by exposure to indicated concentrations of G418 for another 3 h. At 24 h cell lysates were prepared and p53 (C) or Collagen XVII (E) levels were measured. In panels A–C, protein levels were measured by automated capillary electrophoresis Western analysis (using vinculin as loading control). In panel E, protein levels were measured by Western blot (using beta-actin as loading control). Samples of cell lysates containing equal amounts of total protein were loaded in all capillaries and FL-p53 or Collagen XVII levels were expressed relative to their respective amounts in untreated cells. D, total intracellular levels of G418 were measured in the same lysates as in (C) (n = 5; data normalized to the highest response in each experiment; bars represent mean ± SD). F, total intracellular levels of G418 were measured in the same lysates as in (E) (n = 2; data normalized to the highest response in each experiment; bars represent mean ± SD). ∗ indicates statistically significant difference between samples according to one-way ANOVA (p < 0.05). PTC, premature termination codon. […]

Structure (SMILES): c1ccc(Cn2c(NCc3ccco3)nc3ccccc32)cc1 [AC1903]
- effect on G418-induced PTC readthrough (150 μM AC1903 3 h, then 400 μg/ml G418 (Fig. S12)): strongly reduced
- reduction of PTC readthrough compared with G418 alone (AC1903 50 μM 3 h): 20%
- suppression of G418-induced PTC readthrough (AC1903 50 μM, 400 μg/ml G418 (Fig. 1C)): ~27%
- reduction of PTC readthrough compared with G418 alone (AC1903 150 μM 3 h): 74%
- decrease in full-length p53 (pretreatment 150 μM AC1903, increasing concentrations of G418 (Fig. 2C)): ~70%
- effect on PTC readthrough of AC1903 alone (without G418): did not affect PTC readthrough
